Source: patent publication US10683272B2 (THE JOHNS HOPKINS UNIVERSITY, priority 2014, dated 2020)
Where “and” joins values, the source holds several entries; their conditions need not be identical. Equal values may be shown once.

Experiment: radiation dosimetry (OLINDA/EXM) from baboon PET data
Type: Reference Adult Male based on baboon PET imaging data
Protocol: For each time-point, the activity concentration (in Bq/cm^3) was measured in each of the 14 delineated organs and multiplied by the organ volume to obtain the total activity per time point per organ. The measured values were then decay-corrected and divided by the baboon organ mass, determined by the CT density and volume from the drawn contours, and the injected radioactivity to obtain the fraction of initial radioactivity per gram (FIA/g) for each time point and each organ. The baboon FIA/g values were then converted to human FIA (per organ) using the following equation (Schwartz et al., 2011; Woodard et al., 1975): […]
That approach assumes that the concentration of activity in a particular tissue relative to the overall concentration in the whole body is preserved across species (i.e., organ concentration/total body concentration is the same for baboon and man). The resulting human FIA values were plotted as a function of time (nine data points) for each organ and fit to a bi-exponential expression: FIA(t)=A1.e^−(λ1^bio^.t)+A2.e^−(Δ2^bio^.t) (2)
where A1, A2, λ1bio, and λ2bio are fit parameters. The sum of A1 and A2 give the back-extrapolated, time-zero fraction of administered radioactivity in each organ, and λ1bio and λ2bio are the biological clearance constants. The equation for the time-integrated activity coefficient [TIAC, previously known as residence time (Bolch et al., 2009) for each source organ was obtained, as its name implies, by integrating equation (2) and introducing a physical decay term, λφ, which depends on the isotope used:
TIACs were calculated for ^90Y, ^177Lu and ^86Y, with their corresponding physical decay constants: ^90Y λφ=0.01083 h^−1 (T1/2=64.0 h); ^177Lu λφ=0.00429 h^−1 (T1/2=161.52 h) and ^86Y λφ=0.04702 h^−1 (T1/2=14.74 h), respectively voiding. Radiation absorbed doses were obtained by converting time-integrated activity to absorbed doses according to the MIRD absorbed fraction methodology (Bolch et al., 2009) through the use of the OLINDA/EXM software (Stabin et al., 2005). The TIAC for the urinary bladder was obtained using the MIRD bladder model implemented in OLINDA/EXM. Input to that model requires the whole-body TIAC, which was obtained from the equation FIA(t)=A. e^(−λ^bio^t) fitted to whole-body retention kinetics. The voiding interval was set to 2 h. The TIACs were then input into OLINDA/EXM (Stabin et al., 2005), and the resulting absorbed dose per unit of radioactivity obtained for the 14 organs. The specific kidney model in OLINDA/EXM was used to obtain the renal cortex dose values. The absorbed dose from organs external to the kidney was added to the renal cortex dose calculated from the internal kidney model. The specific prostate model was used for prostate self-dose, and external dose to the bladder was added as a surrogate for the whole body to prostate dose. The self-dose component of the absorbed dose per unit activity for the salivary glands was obtained using 3D-RD Monte Carlo (EGSnrc) and a human CT with delineated salivary glands. The cross-dose component was taken by assuming the same cross-dose for a like-sized organ (pancreas).
Measured activity concentration (in Bq/cm^3) values per time point per organ were decay-corrected and divided by the baboon organ mass, determined by the CT density and volume from the drawn contours, and the injected radioactivity to obtain the fraction of initial radioactivity per gram (FIA/g) for each time point and each organ. The baboon FIA/g values were then converted to human FIA (per organ) using the related equation (Olszewski et al., 2004; Schwartz et al., 2011). The resulting human FIA values were then plotted as a function of time and fit to a bi-exponential expression and the value for the time-integrated activity coefficient (TIAC, previously known as residence time (Woodard et al., 1975)) for each source organ was calculated. […]

O=C([O-])CN1CCN(CC(=O)[O-])CCN(CC(=O)[O-])C(Cc2ccc(NC(=S)NCCCCNC(=O)CCCCCCC(=O)NCCCC[C@H](NC(=O)N[C@@H](CCC(=O)O)C(=O)O)C(=O)O)cc2)CN(CC(=O)[O-])CC1.[86Y+3] (stereo partly drawn) [^86Y-6]
Organ absorbed dose, Testes (^90Y): 3.46E−02 mGy/MBq
Organ absorbed dose, Thymus (^90Y): 3.46E−02 mGy/MBq
Organ absorbed dose, Thyroid (^90Y): 3.46E−02 mGy/MBq
Organ absorbed dose, ULI wall (^90Y): 6.29E−02 mGy/MBq
Organ absorbed dose, Urinary bladder wall (^90Y): 1.25 mGy/MBq
Organ absorbed dose, Uterus (^90Y): 3.46E−02 mGy/MBq
Time-integrated activity coefficient (residence time), Brain (^90Y): 1.79E−02 MBq-h/MBq
Time-integrated activity coefficient (residence time), Heart contents (^90Y): 3.15E−02 MBq-h/MBq
Time-integrated activity coefficient (residence time), Kidneys (^90Y): 6.43E−01 MBq-h/MBq
Time-integrated activity coefficient (residence time), Liver (^90Y): 1.77E−01 MBq-h/MBq
Time-integrated activity coefficient (residence time), Lungs (^90Y): 1.22E−01 MBq-h/MBq
Time-integrated activity coefficient (residence time), Muscle (^90Y): 6.85E−01 MBq-h/MBq
Time-integrated activity coefficient (residence time), Pancreas (^90Y): 8.42E−03 MBq-h/MBq
Time-integrated activity coefficient (residence time), Prostate (^90Y): 1.42E−03 MBq-h/MBq
Time-integrated activity coefficient (residence time), Remainder (^90Y): 4.74 MBq-h/MBq
Time-integrated activity coefficient (residence time), Renal cortex (^90Y): 5.27E−01 MBq-h/MBq
Time-integrated activity coefficient (residence time), Salivary Glands (^90Y): 4.88E−02 MBq-h/MBq
Time-integrated activity coefficient (residence time), Small intestine (^90Y): 1.32E−02 MBq-h/MBq
Time-integrated activity coefficient (residence time), Spleen (^90Y): 1.15E−02 MBq-h/MBq
Time-integrated activity coefficient (residence time), Stomach (^90Y): 8.06E−03 MBq-h/MBq
Time-integrated activity coefficient (residence time), ULI (^90Y): 2.51E−02 MBq-h/MBq
Time-integrated activity coefficient (residence time), Ur. bladder contents (^90Y): 9.54E−01 MBq-h/MBq
Organ absorbed dose, Adrenals (^177Lu): 6.96E−03 mGy/MBq
Organ absorbed dose, Brain (^177Lu): 1.48E−03 mGy/MBq
Organ absorbed dose, Breasts (^177Lu): 6.08E−03 mGy/MBq
Organ absorbed dose, Gallbladder wall (^177Lu): 6.79E−03 mGy/MBq
Organ absorbed dose, Heart wall (^177Lu): 9.54E−03 mGy/MBq
Organ absorbed dose, Kidneys (^177Lu): 2.10E−01 mGy/MBq
Organ absorbed dose, LLI wall (^177Lu): 7.06E−03 mGy/MBq
Organ absorbed dose, Liver (^177Lu): 9.37E−03 mGy/MBq
Organ absorbed dose, Lungs (^177Lu): 1.16E−02 mGy/MBq
Organ absorbed dose, Muscle (^177Lu): 3.26E−03 mGy/MBq
Organ absorbed dose, Osteogenic cells (^177Lu): 1.94E−02 mGy/MBq
Organ absorbed dose, Ovaries (^177Lu): 7.05E−03 mGy/MBq
Organ absorbed dose, Pancreas (^177Lu): 9.34E−03 mGy/MBq
Organ absorbed dose, Prostate (^177Lu): 7.94E−03 mGy/MBq
Organ absorbed dose, Red marrow (^177Lu): 5.04E−03 mGy/MBq
Organ absorbed dose, Renal cortex (^177Lu): 0.245 mGy/MBq and 2.45E−01 mGy/MBq
Organ absorbed dose, Salivary glands (^177Lu): 4.76E−02 mGy/MBq
Organ absorbed dose, Skin (^177Lu): 6.01E−03 mGy/MBq
Organ absorbed dose, Small intestine (^177Lu): 8.30E−03 mGy/MBq
Organ absorbed dose, Spleen (^177Lu): 7.16E−03 mGy/MBq
Organ absorbed dose, Stomach wall (^177Lu): 7.88E−03 mGy/MBq
Organ absorbed dose, Testes (^177Lu): 6.56E−03 mGy/MBq
Organ absorbed dose, Thymus (^177Lu): 6.29E−03 mGy/MBq
Organ absorbed dose, Thyroid (^177Lu): 6.26E−03 mGy/MBq
Organ absorbed dose, ULI wall (^177Lu): 1.16E−02 mGy/MBq
Organ absorbed dose, Urinary bladder wall (^177Lu): 2.14E−01 mGy/MBq
Organ absorbed dose, Uterus (^177Lu): 7.76E−03 mGy/MBq
Time-integrated activity coefficient (residence time), Brain (^177Lu): 1.89E−02 MBq-h/MBq
Time-integrated activity coefficient (residence time), Heart contents (^177Lu): 3.30E−02 MBq-h/MBq
Time-integrated activity coefficient (residence time), Kidneys (^177Lu): 7.24E−01 MBq-h/MBq
Time-integrated activity coefficient (residence time), Liver (^177Lu): 1.88E−01 MBq-h/MBq
Time-integrated activity coefficient (residence time), Lungs (^177Lu): 1.28E−01 MBq-h/MBq
Time-integrated activity coefficient (residence time), Muscle (^177Lu): 8.15E−01 MBq-h/MBq
Time-integrated activity coefficient (residence time), Pancreas (^177Lu): 9.00E−03 MBq-h/MBq
Time-integrated activity coefficient (residence time), Prostate (^177Lu): 1.48E−03 MBq-h/MBq
Time-integrated activity coefficient (residence time), Remainder (^177Lu): 4.84 MBq-h/MBq
Time-integrated activity coefficient (residence time), Renal cortex (^177Lu): 6.02E−01 MBq-h/MBq
Time-integrated activity coefficient (residence time), Salivary Glands (^177Lu): 4.97E−02 MBq-h/MBq
Time-integrated activity coefficient (residence time), Small intestine (^177Lu): 1.43E−02 MBq-h/MBq
Time-integrated activity coefficient (residence time), Spleen (^177Lu): 1.29E−02 MBq-h/MBq
Time-integrated activity coefficient (residence time), Stomach (^177Lu): 8.46E−03 MBq-h/MBq
Time-integrated activity coefficient (residence time), ULI (^177Lu): 2.64E−02 MBq-h/MBq
Time-integrated activity coefficient (residence time), Ur. bladder contents (^177Lu): 1.00 MBq-h/MBq
highest mean absorbed dose, renal cortex (overview text b262): 1.9 mGy per MBq
